# According to publication PMC8292346, “Dysfunction of the key ferroptosis-surveilling systems hypersensitizes mice to tubular necrosis during acute kidney injury” (Nature Communications, 2021):
# Assay: Inhibited co-autoxidation of egg phosphatidylcholine liposomes and STY-BODIPY (radical-trapping antioxidant activity)
# Method: Inhibitors were then added (5 μl aliquots) at desired concentrations to the appropriate wells followed by vigorous mixing. […] Experiments were performed in triplicate using HPLC grade solvents and kinetic data is given as an average of three independent measurements. […]
substance,measurement,setting,value
"2,2,7,8-pentamethyl-6-chromanol [PMC, reference compound]",ΔSTY-BODIPY,time 53820 s,-0.366 µM
same,ΔSTY-BODIPY,time 53880 s,-0.3653 µM
same,ΔSTY-BODIPY,time 53940 s,-0.3652 µM
same,ΔSTY-BODIPY,time 54000 s,-0.3628 µM
